Assay results published in ChEMBL document CHEMBL3991601, “The target landscape of clinical kinase drugs” (Science, 2017).
The source made the active and inactive calls. Cut-off read from the data, not from the text of the source, for most assays here: actives have a measured Kd and inactives only a lower limit.

Experiments:
[1] = molecular target: T1, Inhibitor of nuclear factor kappa-B kinase subunit epsilon (Homo sapiens, UniProt Q14164)
T1 sequence (Q14164 whole entry): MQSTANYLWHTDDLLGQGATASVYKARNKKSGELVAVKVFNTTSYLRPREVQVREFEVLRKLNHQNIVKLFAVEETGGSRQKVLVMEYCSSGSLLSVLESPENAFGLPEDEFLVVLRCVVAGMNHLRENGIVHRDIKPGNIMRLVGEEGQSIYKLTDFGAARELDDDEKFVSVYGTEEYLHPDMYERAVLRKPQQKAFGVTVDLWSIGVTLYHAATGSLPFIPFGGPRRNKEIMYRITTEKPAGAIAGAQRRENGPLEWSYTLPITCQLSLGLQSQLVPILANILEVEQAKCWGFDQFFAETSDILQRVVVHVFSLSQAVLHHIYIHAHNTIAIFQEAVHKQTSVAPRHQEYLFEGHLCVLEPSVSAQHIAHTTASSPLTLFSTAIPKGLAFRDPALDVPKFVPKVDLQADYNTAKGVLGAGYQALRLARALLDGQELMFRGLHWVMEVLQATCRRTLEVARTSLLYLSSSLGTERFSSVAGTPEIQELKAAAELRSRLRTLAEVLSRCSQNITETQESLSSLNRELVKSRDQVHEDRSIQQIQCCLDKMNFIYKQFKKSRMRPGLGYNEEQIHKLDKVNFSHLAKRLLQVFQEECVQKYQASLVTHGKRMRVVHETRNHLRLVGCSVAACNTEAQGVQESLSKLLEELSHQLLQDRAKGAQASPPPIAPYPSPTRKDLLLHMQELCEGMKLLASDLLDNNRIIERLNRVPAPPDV

[2] = molecular target: Insulin-like growth factor 1 receptor (Homo sapiens, UniProt P08069)
[3] = molecular target: Tyrosine-protein kinase ABL2 (Homo sapiens, UniProt P42684)
[4] = molecular target: Serine/threonine-protein kinase SIK3 (Homo sapiens, UniProt Q9Y2K2)
[5] = molecular target: T2, General transcription and DNA repair factor IIH helicase subunit XPD (Homo sapiens, UniProt P18074); conditions: read-out: Kd apparent; k-562, colo 205, sk-n-be(2) and mv-4-11
T2 sequence (P18074 whole entry): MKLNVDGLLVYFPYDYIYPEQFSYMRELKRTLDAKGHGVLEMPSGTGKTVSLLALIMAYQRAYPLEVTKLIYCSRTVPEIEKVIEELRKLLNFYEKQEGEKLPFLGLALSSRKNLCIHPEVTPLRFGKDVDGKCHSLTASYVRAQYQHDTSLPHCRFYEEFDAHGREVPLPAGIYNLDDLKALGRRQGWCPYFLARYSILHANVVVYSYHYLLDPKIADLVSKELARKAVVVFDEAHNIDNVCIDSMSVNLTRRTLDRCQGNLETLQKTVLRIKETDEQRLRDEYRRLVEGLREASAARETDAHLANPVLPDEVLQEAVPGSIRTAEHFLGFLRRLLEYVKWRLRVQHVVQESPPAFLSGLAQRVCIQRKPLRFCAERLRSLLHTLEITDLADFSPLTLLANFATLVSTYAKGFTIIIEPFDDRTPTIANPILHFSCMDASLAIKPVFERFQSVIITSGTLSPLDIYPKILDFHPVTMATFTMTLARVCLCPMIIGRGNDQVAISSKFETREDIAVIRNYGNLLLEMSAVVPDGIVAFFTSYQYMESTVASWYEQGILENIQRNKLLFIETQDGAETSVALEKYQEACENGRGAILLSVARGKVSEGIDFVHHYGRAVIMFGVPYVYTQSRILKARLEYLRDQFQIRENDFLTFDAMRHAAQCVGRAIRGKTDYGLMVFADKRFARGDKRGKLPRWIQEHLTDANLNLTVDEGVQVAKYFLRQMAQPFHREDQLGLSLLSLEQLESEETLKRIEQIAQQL

[6] = molecular target: cAMP-dependent protein kinase catalytic subunit gamma (Homo sapiens, UniProt P22612)
[7] = molecular target: T3, Serine/threonine-protein kinase ICK (Homo sapiens, UniProt Q9UPZ9)
T3 sequence (Q9UPZ9 whole entry): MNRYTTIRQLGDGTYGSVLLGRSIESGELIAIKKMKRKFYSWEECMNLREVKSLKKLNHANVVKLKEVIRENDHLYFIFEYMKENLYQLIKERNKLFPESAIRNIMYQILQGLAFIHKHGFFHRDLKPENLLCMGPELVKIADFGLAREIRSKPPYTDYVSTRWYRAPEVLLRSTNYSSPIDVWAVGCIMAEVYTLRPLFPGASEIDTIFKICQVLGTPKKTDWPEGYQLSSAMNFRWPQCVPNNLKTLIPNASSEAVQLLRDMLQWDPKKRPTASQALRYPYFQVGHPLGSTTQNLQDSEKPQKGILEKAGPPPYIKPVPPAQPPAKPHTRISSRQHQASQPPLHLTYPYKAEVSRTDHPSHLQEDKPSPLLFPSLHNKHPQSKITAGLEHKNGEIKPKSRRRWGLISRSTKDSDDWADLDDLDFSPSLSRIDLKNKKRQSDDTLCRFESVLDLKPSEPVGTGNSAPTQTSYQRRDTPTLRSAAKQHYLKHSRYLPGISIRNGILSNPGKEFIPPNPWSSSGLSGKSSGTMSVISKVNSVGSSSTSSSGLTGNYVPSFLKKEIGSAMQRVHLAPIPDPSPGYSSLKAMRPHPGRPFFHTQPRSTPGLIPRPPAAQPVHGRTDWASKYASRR
Note: in the data inactive means no Kd found up to 30 µM.

Chain of Tyrosine-protein kinase ABL2 (P42684 whole entry): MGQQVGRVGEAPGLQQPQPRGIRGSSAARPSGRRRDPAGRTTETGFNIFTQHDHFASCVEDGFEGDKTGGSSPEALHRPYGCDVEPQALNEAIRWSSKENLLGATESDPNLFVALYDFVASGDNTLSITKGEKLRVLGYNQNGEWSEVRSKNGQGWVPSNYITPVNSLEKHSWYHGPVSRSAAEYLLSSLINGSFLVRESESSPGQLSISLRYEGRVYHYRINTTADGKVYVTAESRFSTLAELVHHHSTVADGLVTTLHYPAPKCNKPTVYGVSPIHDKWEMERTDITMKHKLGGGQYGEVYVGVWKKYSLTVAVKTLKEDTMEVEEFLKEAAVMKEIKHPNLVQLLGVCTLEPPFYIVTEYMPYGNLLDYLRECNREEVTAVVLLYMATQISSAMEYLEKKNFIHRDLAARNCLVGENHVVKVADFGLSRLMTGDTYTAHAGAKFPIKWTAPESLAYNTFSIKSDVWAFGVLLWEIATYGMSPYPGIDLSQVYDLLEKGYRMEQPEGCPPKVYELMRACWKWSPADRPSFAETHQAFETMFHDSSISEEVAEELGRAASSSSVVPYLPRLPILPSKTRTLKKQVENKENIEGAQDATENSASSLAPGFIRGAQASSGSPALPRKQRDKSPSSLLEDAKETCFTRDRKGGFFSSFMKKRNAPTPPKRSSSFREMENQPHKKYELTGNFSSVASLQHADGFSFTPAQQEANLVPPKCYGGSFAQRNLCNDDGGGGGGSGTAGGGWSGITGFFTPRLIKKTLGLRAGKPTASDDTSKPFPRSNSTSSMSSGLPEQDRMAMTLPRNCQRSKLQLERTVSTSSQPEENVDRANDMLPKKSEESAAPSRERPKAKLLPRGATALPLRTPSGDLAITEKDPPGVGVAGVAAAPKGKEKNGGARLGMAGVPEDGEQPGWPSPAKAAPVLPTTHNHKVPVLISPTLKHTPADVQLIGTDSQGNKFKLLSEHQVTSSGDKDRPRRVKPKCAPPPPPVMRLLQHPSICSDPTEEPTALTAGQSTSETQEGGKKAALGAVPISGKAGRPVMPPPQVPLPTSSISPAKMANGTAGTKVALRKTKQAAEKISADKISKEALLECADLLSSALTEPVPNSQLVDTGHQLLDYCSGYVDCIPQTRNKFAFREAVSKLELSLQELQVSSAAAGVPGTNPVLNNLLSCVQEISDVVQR
Chain of Serine/threonine-protein kinase SIK3 (Q9Y2K2 whole entry): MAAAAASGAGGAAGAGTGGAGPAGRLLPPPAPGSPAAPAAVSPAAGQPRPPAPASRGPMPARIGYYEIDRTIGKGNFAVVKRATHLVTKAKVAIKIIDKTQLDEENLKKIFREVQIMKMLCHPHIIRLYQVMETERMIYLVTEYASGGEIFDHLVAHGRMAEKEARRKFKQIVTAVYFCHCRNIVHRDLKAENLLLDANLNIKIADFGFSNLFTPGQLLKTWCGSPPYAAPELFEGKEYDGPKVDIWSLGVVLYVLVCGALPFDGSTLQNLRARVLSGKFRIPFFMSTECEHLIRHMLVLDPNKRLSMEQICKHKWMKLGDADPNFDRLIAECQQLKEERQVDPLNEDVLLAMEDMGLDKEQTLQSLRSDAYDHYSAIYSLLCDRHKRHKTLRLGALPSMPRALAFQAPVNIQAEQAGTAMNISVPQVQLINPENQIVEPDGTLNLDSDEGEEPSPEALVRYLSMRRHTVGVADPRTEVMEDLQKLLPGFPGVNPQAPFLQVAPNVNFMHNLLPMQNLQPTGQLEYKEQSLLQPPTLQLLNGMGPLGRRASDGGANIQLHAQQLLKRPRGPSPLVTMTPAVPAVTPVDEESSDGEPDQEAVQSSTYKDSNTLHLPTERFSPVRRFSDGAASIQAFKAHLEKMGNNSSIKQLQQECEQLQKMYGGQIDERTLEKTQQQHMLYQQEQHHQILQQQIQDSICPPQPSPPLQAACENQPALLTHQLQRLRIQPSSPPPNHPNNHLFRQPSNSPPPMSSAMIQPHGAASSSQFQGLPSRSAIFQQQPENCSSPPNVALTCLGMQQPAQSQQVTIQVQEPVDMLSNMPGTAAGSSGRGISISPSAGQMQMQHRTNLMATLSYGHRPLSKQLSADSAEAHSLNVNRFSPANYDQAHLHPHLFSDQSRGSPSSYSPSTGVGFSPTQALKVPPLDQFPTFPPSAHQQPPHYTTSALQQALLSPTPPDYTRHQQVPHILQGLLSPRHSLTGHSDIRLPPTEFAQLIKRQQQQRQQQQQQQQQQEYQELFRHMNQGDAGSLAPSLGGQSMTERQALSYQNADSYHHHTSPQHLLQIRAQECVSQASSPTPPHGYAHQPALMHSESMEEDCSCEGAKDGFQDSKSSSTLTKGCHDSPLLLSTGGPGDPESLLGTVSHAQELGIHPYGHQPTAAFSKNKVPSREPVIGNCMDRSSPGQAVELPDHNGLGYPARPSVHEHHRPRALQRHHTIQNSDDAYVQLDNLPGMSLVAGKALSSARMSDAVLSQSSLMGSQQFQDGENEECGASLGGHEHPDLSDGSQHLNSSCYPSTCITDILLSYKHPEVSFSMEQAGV
Chain of cAMP-dependent protein kinase catalytic subunit gamma (P22612 whole entry): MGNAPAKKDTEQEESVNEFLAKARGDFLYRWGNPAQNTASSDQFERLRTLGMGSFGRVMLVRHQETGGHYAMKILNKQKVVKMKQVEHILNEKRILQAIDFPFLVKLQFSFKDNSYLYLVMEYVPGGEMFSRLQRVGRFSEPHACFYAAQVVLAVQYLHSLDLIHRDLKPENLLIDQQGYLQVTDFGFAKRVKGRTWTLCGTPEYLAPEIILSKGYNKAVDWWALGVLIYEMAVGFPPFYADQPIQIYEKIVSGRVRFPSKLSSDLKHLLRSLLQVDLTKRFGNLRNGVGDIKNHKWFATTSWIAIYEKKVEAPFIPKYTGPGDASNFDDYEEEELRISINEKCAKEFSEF
Chain of Insulin-like growth factor 1 receptor (P08069 31-736 limits assumed): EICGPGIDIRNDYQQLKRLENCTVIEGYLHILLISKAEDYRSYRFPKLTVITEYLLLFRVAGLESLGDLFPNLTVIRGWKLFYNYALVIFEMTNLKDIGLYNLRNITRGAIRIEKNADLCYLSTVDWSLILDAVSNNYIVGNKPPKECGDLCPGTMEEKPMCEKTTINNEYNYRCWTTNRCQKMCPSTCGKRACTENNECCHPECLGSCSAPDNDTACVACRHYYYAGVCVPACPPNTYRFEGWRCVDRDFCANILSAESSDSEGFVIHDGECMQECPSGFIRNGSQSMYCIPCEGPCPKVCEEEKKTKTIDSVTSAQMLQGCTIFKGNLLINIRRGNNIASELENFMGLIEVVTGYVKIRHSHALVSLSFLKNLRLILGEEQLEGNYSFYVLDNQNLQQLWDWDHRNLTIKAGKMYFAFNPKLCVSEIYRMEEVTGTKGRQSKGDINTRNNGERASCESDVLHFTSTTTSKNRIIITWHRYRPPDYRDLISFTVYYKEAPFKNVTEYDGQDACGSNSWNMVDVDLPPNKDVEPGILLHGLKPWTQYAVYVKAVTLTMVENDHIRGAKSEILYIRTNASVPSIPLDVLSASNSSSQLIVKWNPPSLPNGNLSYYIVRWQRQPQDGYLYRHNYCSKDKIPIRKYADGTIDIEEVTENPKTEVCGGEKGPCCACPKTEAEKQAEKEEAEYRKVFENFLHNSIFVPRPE
Chain of Insulin-like growth factor 1 receptor (P08069 741-1367 limits assumed): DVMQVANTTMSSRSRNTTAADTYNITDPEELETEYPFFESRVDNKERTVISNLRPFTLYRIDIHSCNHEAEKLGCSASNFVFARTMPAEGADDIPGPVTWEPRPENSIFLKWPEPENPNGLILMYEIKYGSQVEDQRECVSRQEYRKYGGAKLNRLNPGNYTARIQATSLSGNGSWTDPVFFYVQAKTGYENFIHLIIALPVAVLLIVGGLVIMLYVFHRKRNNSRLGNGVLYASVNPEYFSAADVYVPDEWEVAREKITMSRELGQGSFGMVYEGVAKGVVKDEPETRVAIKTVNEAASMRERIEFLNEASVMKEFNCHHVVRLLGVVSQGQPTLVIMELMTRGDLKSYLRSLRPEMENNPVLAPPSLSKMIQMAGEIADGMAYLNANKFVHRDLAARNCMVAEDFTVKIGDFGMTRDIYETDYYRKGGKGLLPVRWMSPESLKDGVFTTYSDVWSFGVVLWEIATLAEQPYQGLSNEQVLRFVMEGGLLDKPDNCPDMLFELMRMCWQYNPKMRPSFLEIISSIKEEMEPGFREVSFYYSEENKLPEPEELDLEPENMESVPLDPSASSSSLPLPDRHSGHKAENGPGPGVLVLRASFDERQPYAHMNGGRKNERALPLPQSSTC

C[C@@H](N)c1ccc(C(=O)Nc2ccnc3[nH]ccc23)cc1 [Y-39983]
Kd [1]: > 30 µM (inactive) | Kd [2]: > 30 µM (inactive) | Kd [3]: > 30 µM (inactive) | Kd [4]: 0.071 µM (active) | Kd [5]: > 30 µM (inactive) | Kd [6]: > 30 µM (inactive) | Kd [7]: > 30 µM (inactive)

CN1C/C=C/CCOc2cccc(c2)-c2ccnc(n2)Nc2cccc(c2)C1 [ZOTIRACICLIB]
Kd [1]: > 30 µM (inactive) | Kd [2]: > 30 µM (inactive) | Kd [3]: > 30 µM (inactive) | Kd [4]: 1.3 µM | Kd [5]: 0.319 µM | Kd [6]: > 30 µM (inactive) | Kd [7]: > 30 µM (inactive)
